Patent US20100022014A1, “Method for Evaluating Obesity Controller” (Kao Corporation, priority 2006, published 2010)

System: insulin secretion
Assay: Postprandial insulin secretion after oral glucose + triolein emulsion with added 1-monoolein (Example 5)
Format: in vivo, mouse
Conditions: MAG in a one-tenth or one-fifth amount, in words
Description: Triolein (obtained from Sigma Corp.) was used as triacylglycerol, and 1-monoolein (obtained from Sigma Corp.) was used as monoacylglycerol. Glucose (Kanto Chemical Co., Inc.) was used as the carbohydrate.
Eight fasted mice (C57BL/6J, male, 8 weeks old) were grouped in each group, and the mice were orally administered, using a sonde, with 2 mg/g of body weight of glucose only; with the glucose and also 2 mg/g of body weight of triolein (TAG), in the form of an emulsion obtained by emulsifying 0.02 mg/g of body weight of the lipid with egg yolk lecithin (Glucose and TAG/MAG0, respectively); or with mixtures obtained by respectively adding 0.08, 0.2 and 0.4 mg/g of body weight of 1-monoolein (MAG) to the emulsion (TAG/MAG1, TAG/MAG2, and TAG/MAG3, respectively). The blood was sampled from the orbital vein of each mouse before the administration, and at 10 and 30 minutes after the administration, the blood insulin level was measured, and the area under curve (AUC) of the graph was calculated. The insulin level was measured by the ELISA method (insulin measuring kit, Morinaga Biochemical Lab, Inc.).
Relative values of the amount of secreted insulin (AUC) for 30 minutes after the administration, with respective to the insulin AUC value of the mice which ingested glucose only, taken as 100, are presented in Table 9.

CCCCCCCC/C=C\CCCCCCCC(=O)OCC(O)CO (stereo not shown) [MAG, 1-monoolein]
Effect on postprandial insulin secretion relative to TAG/MAG0: effect of suppressing the postprandial insulin secretion in the blood was recognized
